The numbers were not newly measured in US20100055163A1, “FORMULATION OF NATURAL T[…] […] FROM THE GENUS OLEA IN LIPOSOMES” (UNIVERSIDAD DE GRANADA, priority 2006, published 2010), which cites them from elsewhere.

In series [1] the test system is acquired immunodeficiency virus. To be noted: acts intracellularly.
Series [2] deals with HIV-1 protease (Human immunodeficiency virus type 1 group M subtype B, UniProt P04585).
The subject of series [3] is rainbow trout. To be noted: added to feed.
The subject of series [4] is membrane hepatocyte lipid peroxidation (LPO). To be noted: rats.
For series [5], the system named is parasites of the genus Cryptosporidium. On the set-up: dose or concentration left out as unconfirmed. To be noted: MDCK cell lines.

As to `CC1(C)CC[C@]2(C(=O)O)CC[C@]3(C)C(=CC[C@@H]4[C@@]5(C)C[C@@H](O)[C@H](O)C(C)(C)[C@@H]5CC[C@]43C)[C@@H]2C1` [maslinic acid, 2-alpha, 3-beta-dihydroxy-28-carboxy-oleanene], in series [1], the “exit of the virus from the infected cell towards the medium” value is given as “considerably inhibits”. In addition, the “inhibiting activity in vitro of HIV-1 protease” value in series [2] is recorded as “powerful inhibiting activity”. In addition, in series [3], the “hepatic organ and function” value is “significant improvement of the hepatic organ and function”. Further, the “lipoperoxide levels and membrane hepatocyte susceptibility to lipid peroxidation (LPO)” value in series [4] is “reduces lipoperoxide levels and membrane hepatocyte susceptibility to lipid peroxidation (LPO)”. The infection inhibition percentage in series [5] is recorded as 92.3%.
